Where a name gives a salt, the structure may show the parent alone.
What was measured:
[1] = ALS patients; cited from earlier work
primary astrocytes [2] = assay: Intracellular glycogen quantification; format: cell-based, mouse; conditions: 10 μM, 3 h
Protocol: For glycogen dosage, a protein dosage was first performed in order to assess whether harvested astrocytes from primary cell cultures yielded enough and equivalent amounts of proteins comparing each replicate, and to ensure that the obtained differences in glycogen quantities were due to drug action and not to inner protein quantities.
Astrocytes used for these dosages were previously grown in 6-well plates for 17 days and stimulated with Vehicle (DMSO) or drug of interest (1 μM to 100 μM) for 180 min, at 37° C. 5% CO2/95% air in D5030 complete medium. Medium was removed and replaced with 600 μl of 30 mM Tris HCl, and stored at −20° C.
Proteins were dosed using the micro BCA Protein Assay kit (Thermo Scientific), as described in the manufacturer's instructions. Briefly, thawed cells were sonicated and 5 μl aliquots were placed in a transparent 96-well plate, to which we added 25 μl 30 mM Tris HCl, 70 μl H2O and 100 μl of a BCA mix (made as described in manufacturer's guidelines). After a 120 min-incubation at 37° C., absorbance was measured with Safire 2 spectrophotometer at a wavelength of 562 nm, and protein quantities were determined from a standard curve of Bovine Serum Albumin (BSA).
Glycogen was quantified using a 250 μl-aliquot of the same stimulated, thawed, and sonicated cells. After an incubation period of 30 min at 90° C. and 400 rpm, 28 μl of an acetic acid/sodium acetate (both from Sigma) 0.1M pH 4.6 buffer was added to each aliquot, which was then separated in two. Each split aliquot received whether 5 μl of amyloglucosidase (Roche) or 5 μl H2O, and all cell solutions were incubated for 120 min in a shaking 37° C.-waterbath. After a centrifugation at 16'000G for 5 min, 20 μl of supernatant were placed 96-well plate, to which 150 μl of a mix containing 0.67 mM ATP (Roche), 0.67 mM NADP (Roche), 1.8% hexokinase/glucose-6-phosphate dehydrogenase (Roche) and 0.1M Tris Buffer-HCl/3.3 mM magnesium (Fluka)/pH 8.1 buffer was added. Fluorescence was measured with Safire 2 spectrophotometer (340 nm excitation/440 nm emission). Glycogen concentration was obtained by substracting glucose value of samples with amyloglucosidase to samples without amyloglucosidase, and were expressed relative to the amount of proteins previously determined.
Levels of intracellular glycogen in astrocytes were measured at 3 h after stimulation with 20 Hits from the Prestwick library (10 μM each), as shown in FIG. 2. n=6-10; Ctrl pos. is glutamate (0.5 mM). Statistical analysis consisted in ANOVA followed by Fisher LSD post-hoc test for pair-wise comparisons.
Statistical analysis consisted in ANOVA followed by Fisher LSD post-hoc test for pair-wise comparisons.

primary astrocytes [3] = assay: Extracellular lactate quantification; format: cell-based, mouse; conditions: for Score_LACTATE: Appendix I, secondary screening: extracellular lactate
Procedure, shortened: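 Astrocytes were stimulated 90 min at 37 °C in D5030 medium with 5 mM glucose and 44 mM bicarbonate, with compound at 0-100 μM. Extracellular lactate was measured enzymatically with LDH/NAD in glycine-semicarbazide buffer, pH 10, for 1 h at 37 °C. NADH fluorescence (340/450 nm) was converted to lactate using an L-lactate standard curve.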

primary astrocytes [4] = assay: Intracellular glycogen quantification, Example 2; format: cell-based, mouse; conditions: 10 μM, 3 h
Protocol: Astrocytes grown on 12-well plates were used for intracellular glycogen quantifications. Cells were stimulated with Vehicle (DMSO), with compounds of the invention (10 μM), or with a positive control for 180 min, at 37° C. 5% CO2/95% air in D5030 medium complemented with
5 mM D-glucose and 44 mM sodium bicarbonate (pH 7.2). […] At the end of the stimulation, medium was removed and replaced with 600 μl of 30 mM Tris HCl, and stored at −20° C.
First, the amount of proteins in each sample was quantified to assess whether harvested astrocytes from primary cell cultures yielded enough and equivalent amounts of proteins on each replicates. Proteins were quantified using the micro BCA Protein Assay kit (Thermo Scientific), according to manufacturer's instructions. Next, intracellular glycogen concentrations were quantified using a 250 μl-aliquot of the same stimulated, thawed, and sonicated cell lysate. After an incubation period of 30 min at 90° C. and 400 rpm, 28 μl of a 0.1M acetic acid/sodium acetate buffer (pH 4.6) was added to each lysate aliquots, which were then separated in two. Each split aliquots received either 5 μl of amyloglucosidase or H2O, and incubated for 120 min at 37° C. After centrifugation at 16'000G for 5 min, 20 μl of supernatant were placed in a 96-well plate, to which 150 μl of a mix containing 0.67 mM ATP, 0.67 mM NADP, 1.8% hexokinase/glucose-6-phosphate dehydrogenase in a 0.1M Tris Buffer-HCl/3.3 mM magnesium (pH 8.1) buffer was added. Fluorescence intensity (340 nm excitation/440 nm emission) was measured using a Safire 2 spectrophotometer. Glucose concentrations were assessed relative to a glucose standard curve, and glycogen concentrations were calculated by subtracting glucose values of samples that had received amyloglucosidase (i.e. that had degraded their glycogen stores) to samples that had not. Intracellular levels of glycogen, which is the main source of glucose storage in the brain, were analyzed in primary astrocytes after treatment with compounds of interest (10 μM, 3 h) (FIG. 5B), and compound GP-0157 (0.1, 1, 10 μM, 3 h) (FIG. 20).

primary astrocytes [5] = assay: High throughput screening (HTS) for lactate secretion: acidification of extracellular medium (SNARF5); format: cell-based, mouse; parameters: key to Score / HTS Score (SNARF5) / Score_SNARF: fraction of plate positive-control activity (1 = 100%); conditions: for Score_SNARF: Appendix I, primary screening confirmation (SNARF5)
Protocol: Primary cultures of cerebrocortical astrocytes were obtained from 1-2-day-old OF1 mouse pups (Charles River Laboratories). Briefly, cortices were isolated and minced in small pieces under a dissecting microscope. The cells were incubated for 30 min at 37° C. in a solution containing 20 U/ml of papain enzyme (Worthington Biochemical), L-cysteine 1 mM (Sigma), and 10 kU/ml DNase I (Worthington Biochemical) for an enzymatic dissociation. Papain activity was stopped by the addition of fetal calf serum (FCS) to the solution, and a single-cell suspension was then obtained by mechanical dissociation, which consisted in cells trituration in a DMEM (D7777, Sigma-Aldrich) medium (supplemented with 44 mm NaHCO3, and 10 ml/L antibiotic/antimycotic solution) containing 10% FCS. The cells were seeded at an average density of 6×10^4 cells/cm^2 in poly-D-lysine-coated 96, 12 or 6-well culture plates, depending on their use, and incubated at 37° C. in a humidified atmosphere containing 5% CO2/95% air. Culture medium was renewed twice per week. Cells were stimulated and harvested between DIV14 and DIV17, when confluence and cell growth were optimal.
Secretion of lactate in a high-throughput screening (HTS) fashion was measured indirectly through the acidification of extracellular medium. To this end, primary astrocytes grown in 96-well plates for 17 days were stimulated with the compounds as listed herein.
After washing the cells twice with stimulation medium (DMEM (D5030, Sigma), 3 mM NaHCO3 and 5 mM Glucose) at 37° C., cells were stimulated with the compounds at a final concentration of 10 uM (1% DMSO final) in 50 ul per well of stimulation medium supplemented with 10 uM of the extracellular pH sensor SNARF-5F %-(AND-6)-CAR (Life Technologies Corporation). Each compound was tested in two different plates for duplicates.
After 90 min stimulation, fluorescence was read at exc. (excitation) 480 nm/emm. (emission) 580 nm and at exc 480 nm/emm. 630 nm. The ratio of fluorescence between 630 nm and 580 emission values, which represents extracellular pH, was calculated.
In each plate, 8 wells were used for negative controls (DMSO) and 8 wells were used for positive controls (CCCP 2 uM in DMSO). Z prime values were calculated for each of the plates tested and values<0 were discarded.
The average and SD of compounds' values tested in duplicates were calculated, and compound was noted as HIT when the difference between compound's average and negative control's average was greater than three times the sum of compound's SD and negative controls' SD. Only scores greater than 40% were considered as lead Hits for the CDC54K library; for the remaining libraries, all hits were considered. Scores are calculated as the % of activity compared to the positive control in each plate (which is 100%).
Primary screening hits were cherry picked on new plates and confirmed for SNARF5 effect, after having discarded those compounds that are fluorescent (exc. 480 nm/emm. 580 nm or 630 nm) before stimulation. Extracellular medium was next analyzed for extracellular lactate quantification for secondary screening.
Identification of lactate-enhancing drugs with high throughput screening (HTS) experiments on astrocytes primary cultures using extracellular pH dye (SNARF5F 5-(and-6)-carboxylic acid) for 90 min. The procedure is described in Material and Methods (2. Cell culture, 2.1. HTS for lactate secretion and 2.2. Extracellular lactate quantification).
The procedure was performed as follows: • Primary screening: acidification of the extracellular medium • Primary screening confirmation: acidification of the extracellular medium, removal of compounds with fluorescent activity at exc. 480 nm/emm. 580 nm or 630 n. • Secondary screening: dosage of extracellular lactate

primary astrocytes [6] = assay: MTT viability assay; format: cell-based; conditions: Mus musculus, Astrocyte, 0-200 uM, 24 h
Protocol: For cell toxicity determination, astrocytes in 96-well plates were stimulated 24 h (37° C. 5% CO2/95% air) with a gradient ranging from 0.1 to 200 μM of tested compounds. After stimulation, 5 mg/ml thiazol blue tetrazolium bromide (MTT, Sigma-Aldrich) in warm D5030 complete medium was added to each well, and cells were incubated for 4 h at 37° C. (5% CO2). The medium was then removed by aspiration, and the reaction was stopped by the addition of 50 μl DMSO per well.
The amount of reduced MTT (formazan) solubilized in DMSO was then determined spectrophotometrically using absorbance at 570 nm (Safire 2; Tecan).
MTT cellular viability assay was performed on astrocytes exposed to Preswtick Hits (concentrations ranging from 0 uM to 200 uM).
MTT cellular viability assay was performed on astrocytes exposed to CDC54K Hits (concentrations ranging from 0 uM to 200 uM).

| Structure (SMILES) | Score_LACTATE (primary astrocytes [3]) | Score_SNARF (primary astrocytes [5]) | IC50 (primary astrocytes [6]; CDC54K hits) [µM] | also measured |
| --- | --- | --- | --- | --- |
| CC1=NN(c2ccccc2)C(=O)C1 [Ederavone, edaravone] | – | – | – | prolongation of patients' lifetime [1]: a few months only |
| O=C(COc1ccc(Cl)cc1)N1CCN(Cc2ccc3c(c2)OCO3)CC1 [Fipexide hydrochloride] | – | – | – | Glycogen (statistical significance of glycogen degradation) (primary astrocytes [2]; Prestwick hits): ns |
| COc1ccccc1[N+]1=C2CCCCCN2C(O)(c2ccc(C)cc2)C1 (stereo not drawn) [K404-0834] | 1.613 | 1.022 | – | mobilization of intracellular glycogen (primary astrocytes [4]): significantly enhance |
| COc1ccccc1NC(=O)Cc1nn(C)c(=O)c2ccccc12 [K851-0113] | 0.9281 | 0.7569 | > 200 | Glycogen (statistical significance of glycogen degradation) (primary astrocytes [2]; CDC54K hits): ns |
| Nc1nc2ccc(OC(F)(F)F)cc2s1 [Riluzole] | – | – | – | prolongation of patients' lifetime [1]: a few months only |
| Fc1ccc(-c2cc3n(n2)CCCN(Cc2ccncc2)C3)cc1 [T202-1455] | 0.6933 | 0.7839 | > 200 | Glycogen (statistical significance of glycogen degradation) (primary astrocytes [2]; CDC54K hits): ns |
| COc1ccc(Nc2nc(N3CCOCC3)c3ccccc3n2)cc1 [T0508-5190] | 0.2892 | 0.4029 | – | mobilization of intracellular glycogen (primary astrocytes [4]): significantly enhance |
| CC(=O)c1cccc(NC(=O)C(C)Sc2ncnc3ccccc23)c1 (stereo not drawn) [T0511-9200] | 0.7518 | 0.4866 | > 200 | Glycogen (statistical significance of glycogen degradation) (primary astrocytes [2]; CDC54K hits): ns |
| O=S(=O)(Nc1cc(F)cc(F)c1)c1ccc2ccccc2c1 [T5884038] | 0.9262 | 0.8379 | – | mobilization of intracellular glycogen (primary astrocytes [4]): significantly enhance |
| COc1cccc(CNS(=O)(=O)c2ccc3c(c2)CCCN3C(C)=O)c1 [T5967389] | 0.4517 | 0.2789 | > 200 | Score Lact. (primary astrocytes [3]; Appendix II, CDC54K library): 0.45 |
| C#C[C@]1(O)CC[C@H]2[C@@H]3[C@H](C)CC4=C(CCC(=O)C4)[C@H]3CC[C@@]21C [Tibolone] | – | – | – | EC50 (primary astrocytes [3]; Mus musculus, Astrocyte, 1.5 h, Prestwick hits, 0-100 μM, 90 min, read-out: Lactate EC50): 2.23 µM; Score (primary astrocytes [5]; Prestwick library, 10 uM, 90 min, activity relative to positive control CCCP 2 uM): 0.2268; HTS Score (lactate) (primary astrocytes [5]; Prestwick library, 10 uM, 90 min, relative to positive control CCCP 2 uM): 0.227; IC50 (primary astrocytes [6]; Prestwick hits): 60.7 µM |
| O=c1n(CCCN2CCN(c3cccc(Cl)c3)CC2)nc2ccccn12 [Trazodone hydrochloride] | – | – | – | Glycogen (statistical significance of glycogen degradation) (primary astrocytes [2]; Prestwick hits): ns |
